Laboratory results published in patent US6337394B2, “Compounds” (AstraZeneca AB, priority 1997, dated 2002).

Biological target: T1, Human thrombin (Homo sapiens, UniProt P00734)
T1 construct: purchased Sigma Chem. Co. T 6769
Experiment: Determination of Thrombin Clotting Time (TT), Test A
Type: biochemical
Conditions: concentration of inhibitor that doubles the thrombin clotting time for human plasma; pooled normal citrated human plasma, pH 7.4
Protocol: Determination of Thrombin Clotting Time (TT)
Human thrombin (T 6769, Sigma Chem. Co.) in buffer solution, pH 7.4, 100 μL, and inhibitor solution, 100 μL, were incubated for one min. Pooled normal citrated human plasma, 100 μL, was then added and the clotting time measured in an automatic device (KC 10, Amelumg).
The clotting time in seconds was plotted against the inhibitor concentration, and the IC50TT was determined by interpolation.
IC50TT is the concentration of inhibitor in the test that doubles the thrombin clotting time for human plasma.

- IC50: < 300 nM
SMILES: COc1ccc(OC)c(C(CO)C(=O)N2CCCC2C(=O)NCc2ccc(C(=N)N)cc2C)c1 (single isomer, unassigned) [Example 2, (2,5-diMeO)Ph—(R or S)CH(CH2OH)—CO-Pro-Pab(2-Me)×HOAc]
